Reference: patent publication US6919314B1, “Bioactive whey protein hydrolysate” (New Zealand Dairy Board, priority 1998, dated 2005)
Marks after values point to notes of the source that are not given here. Ends that are not written are not given here. Peptide text beside a SMILES is read from it.

system: spontaneously hypertensive rats (SHR/N); assay: In vivo blood pressure in spontaneously hypertensive rats (tail cuff); design: species or system rat; conditions: 30 mg/Kg bodyweight/day for 8 weeks, compared with the hydrolysate
Text: The rat strain has been specifically selected for their development of high blood pressure on maturing, and is used extensively to monitor the effect of blood pressure lowering agents.
Eight week old rats were individually housed in plastic rat cages and kept in temperature controlled facilities throughout the trial. They had unlimited access to water and were fed commercial rat chow ad libitum. The test products were given orally as a single daily dose for 8 weeks during which time changes in blood pressure were monitored.

Compound	systolic blood pressure
C[C@H](CS)C(=O)N1CCC[C@H]1C(=O)O [captopril]	effect of the hydrolysate was not as great as that of captopril

biological target: T1, rabbit lung ACE (Oryctolagus cuniculus, UniProt P12822); assay: ACE-I activity using FAPGG as substrate (method of Cushman & Cheung); type: biochemical; conditions: colorimetric substrate FAPGG; activity measured with that of another peptide of unknown origin
T1 construct: reagents from Sigma product 305-10) consisting of rabbit lung ACE; purchased Sigma Chemical Corporation, St Louis, Mo., USA 305-10; host or cells: rabbit lung (tissue-derived enzyme)
T1 sequence (P12822 34-1310): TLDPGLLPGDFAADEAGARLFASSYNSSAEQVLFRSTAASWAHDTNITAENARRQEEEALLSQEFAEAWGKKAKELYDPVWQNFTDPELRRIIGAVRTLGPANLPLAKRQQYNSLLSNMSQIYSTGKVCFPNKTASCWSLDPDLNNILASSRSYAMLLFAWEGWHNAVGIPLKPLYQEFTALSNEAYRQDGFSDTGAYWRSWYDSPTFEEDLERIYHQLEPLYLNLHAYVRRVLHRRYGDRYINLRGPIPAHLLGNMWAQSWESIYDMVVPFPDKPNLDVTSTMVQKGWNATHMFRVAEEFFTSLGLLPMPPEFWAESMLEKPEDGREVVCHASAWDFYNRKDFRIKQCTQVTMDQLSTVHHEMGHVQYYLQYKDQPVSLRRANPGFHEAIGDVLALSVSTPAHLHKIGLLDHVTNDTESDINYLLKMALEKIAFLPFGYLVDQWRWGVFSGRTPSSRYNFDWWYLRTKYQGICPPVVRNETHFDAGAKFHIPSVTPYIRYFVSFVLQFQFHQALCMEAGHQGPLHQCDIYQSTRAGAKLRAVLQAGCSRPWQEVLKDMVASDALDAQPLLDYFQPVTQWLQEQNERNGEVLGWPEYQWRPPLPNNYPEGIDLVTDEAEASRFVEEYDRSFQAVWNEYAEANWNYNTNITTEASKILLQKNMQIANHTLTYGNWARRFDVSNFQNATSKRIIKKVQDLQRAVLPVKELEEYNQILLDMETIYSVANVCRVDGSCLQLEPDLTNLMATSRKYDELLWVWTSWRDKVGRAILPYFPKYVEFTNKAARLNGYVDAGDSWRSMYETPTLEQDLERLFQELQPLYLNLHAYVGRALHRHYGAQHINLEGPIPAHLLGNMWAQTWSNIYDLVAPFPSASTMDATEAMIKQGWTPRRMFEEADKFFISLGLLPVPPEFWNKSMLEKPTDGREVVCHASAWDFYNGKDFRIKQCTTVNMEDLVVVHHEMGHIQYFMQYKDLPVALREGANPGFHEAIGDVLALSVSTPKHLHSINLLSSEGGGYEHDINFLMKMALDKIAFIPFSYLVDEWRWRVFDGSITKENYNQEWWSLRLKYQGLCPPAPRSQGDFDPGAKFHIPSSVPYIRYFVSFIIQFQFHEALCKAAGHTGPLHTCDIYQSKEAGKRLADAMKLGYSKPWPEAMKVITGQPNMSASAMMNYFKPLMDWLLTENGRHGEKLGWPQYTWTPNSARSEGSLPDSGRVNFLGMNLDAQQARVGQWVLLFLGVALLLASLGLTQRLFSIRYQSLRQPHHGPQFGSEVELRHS
Protocol: A pH of 7.0 and an enzyme substrate ratio of 0.3% w/w was used for the hydrolysis. The hydrolysate was adjusted to pH 5.0 and heated at 65° C. for 30 min to inactivate the enzyme. […] ACE-I activities are expressed as the amount of material (g/L) needed to reduce the activity of the ACE-I enzyme by 50%.
Each fraction was lyophilised and the amount of peptide material present was measured gravimetrically. […] If a peptide inhibits ACE, the change in absorbance at 340 nm is reduced. […] The eluate was collected using the fraction collector set to collect 0.5 min fractions.
Samples from each fraction were analysed using an analytical reverse-phase HPLC column, and those fractions containing a single, identical peptide were pooled. Each pooled fraction was lyophilised and the weight of the peptide present was determined gravimetrically. The purified peptides were assayed for ACE-I activity as before and the IC50 was calculated for […] individual peptide.

Compound	Activity (IC50 in mg L^−1)
Leu-Phe-Arg-Glu (LFRE; not fully specified; printed: Leu-Phe-Arg-Glu) [LFRQ, origin αs1-CN(136-139)]	17^h mg L^−1

same assay, conditions: purified peptide; colorimetric substrate FAPGG; read-out: Activity (IC50 in mg L^−1) (converted)

Compound	IC50 [µM]
LIVTQ [LIVTQ, Leu-Ile-Val-Thr-Gln]	29.7
ILKEKH [ILKEKH, Ile-Leu-Lys-Glu-Lys-His]	26.1
CSCC[C@H](N)C(=O)N[C@@H](CCCCN)C(=O)NCC(=O)O [MKG, Met-Lys-Gly] (H-Met-Lys-Gly-OH; N-terminus and C-terminus assumed)	71.8
LHLPLP [LHLPLP, Leu-His-Leu-Pro-Leu-Pro]	10.2
LDIQK [LDIQK, Leu-Asp-Ile-Gln-Lys]	27.6
CC(C)C[C@H](N)C(=O)N[C@@H](Cc1ccccc1)C(=O)N[C@@H](CO)C(=O)N[C@@H](Cc1c[nH]cn1)C(=O)O [LFSH, Leu-Phe-Ser-His] (H-LFSH-OH; N-terminus and C-terminus assumed)	59.7
LVYPFPGPIPNSLPQNIPP	9.22
ALPMH [ALPMH, Ala-Leu-Pro-Met-His]	21.1
VTSTAV [VTSTAV, Val-Thr-Ser-Thr-Ala-Val]	52
